According to article PMC4403311, “Making water-soluble integral membrane proteins in vivo using an amphipathic protein fusion strategy” (Nature Communications, 2015):
Several values for one entry are separate records, joined by “and”; a condition that tells them apart may be missing. Identical values can stand only once. Like-named read-outs stand apart in the source and are kept apart here.

Experiments:
[1] = molecular target: T1, detergent-solubilized EmrE (Escherichia coli, UniProt P23895); assay: tryptophan fluorescence quenching titration (excitation […] nm); type: binding
T1 construct: full-length EmrE (110 aa), organic-extracted, solubilized in DDM, purified from E. coli BL21(DE3); unfused

[2] = molecular target: the molecule itself; assay: SEC; detergent-free fusion proteins after affinity purification; SEC buffer 20 mM Tris pH 7.5, 50 mM NaCl, 1 mM EDTA pH 8.0; column calibrated with Bio-Rad standards; self-association of the fusion

How did the Kd ([1]; 20 mM Tris-HCl pH 7.5, 150 mM NaCl, 0.08% w/v DDM, 10 μM protein, room temperature) turn out when `c1ccc([P+](c2ccccc2)(c2ccccc2)c2ccccc2)cc1` [tetraphenylphosphonium] was run?
The Kd was “higher for ApoAI*-solubilized EmrE compared with its detergent-solubilized counterpart”.

Which Kd ([1]; read-out: Kd) does the source give for `CC[n+]1c(-c2ccccc2)c2cc(N)ccc2c2ccc(N)cc21` [ethidium bromide] here?
The Kd was 5.4 ± 0.47 µM.

B1: ΔspMBP-EmrE-ApoAI* (other)
chain: MNPYIYLGGAILAEVIGTTLMKFSEGFTRLWPSVGTIICYCASFWLLAQTLAYIPTGIAYAIWSGVGIVLISLLSWGFFGQRLDLPAIIGMMLICAGVLIINLLSRSTPHLKLLDNWDSVTSTFSKLREQLGPVTQEFWDNLEKETEGLRQEMSKDLEEVKAKVQPYLDDFQKKWQEEMELYRQKVEPLRAELQEGARQKLHELQEKLSPLGEEMRDRARAHVDALRTHLAPYSDELRQRLAARLEALKENGGARLAEYHAKATEHLSTLSEKAKPALEDLRQGLLPVLESFKVSFLSALEEYTKKLNTQ
With B1 as the molecule, how does the “stoichiometry N” value [2] read?
The value was 2 and 4.

B2: ΔspMBP-cyt b5-ApoAI* (other)
chain: MAEQSDEAVKYYTLEEIQKHNHSKSTWLILHHKVYDLTKFLEEHPGGEEVLREQAGGDATENFEDVGHSTDAREMSKTFIIGELHPDDRPKLNKPPETLITTIDSSSSWWTNWVIPAISAVAVALMYRLYMAEDLKLLDNWDSVTSTFSKLREQLGPVTQEFWDNLEKETEGLRQEMSKDLEEVKAKVQPYLDDFQKKWQEEMELYRQKVEPLRAELQEGARQKLHELQEKLSPLGEEMRDRARAHVDALRTHLAPYSDELRQRLAARLEALKENGGARLAEYHAKATEHLSTLSEKAKPALEDLRQGLLPVLESFKVSFLSALEEYTKKLNTQ
For B2, which “stoichiometry N” value [2] is on record?
Its value is 8 and 4.
